Assay results published in ChEMBL document CHEMBL2151037, “Synthesis of novel 1H-1,2,3-triazole tethered C-5 substituted uracil-isatin conjugates and their cytotoxic evaluation” (Eur J Med Chem, 2012).

Assays:
Assay type in all cases: functional, cell-based
[1] = tested on: DU-145; experiment: Antiproliferative activity against human DU145 cells after 24 hrs by MTT assay; conditions: DU-145, 24 h
[2] = tested on: HeLa; experiment: Antiproliferative activity against human HeLa cells after 24 hrs by MTT assay
[3] = tested on: MCF7; experiment: Antiproliferative activity against human MCF7 cells after 24 hrs by MTT assay; conditions: MCF7, 24 h

Row | Structure (SMILES) | IC50 [1] [µM] | IC50 [2] [µM] | IC50 [3] [µM]
1 | Cc1ccc2c(c1)C(=O)C(=O)N2CCCn1cc(Cn2ccc(=O)n(Cc3cn(CCCN4C(=O)C(=O)c5cc(C)ccc54)nn3)c2=O)nn1 | 63.7 | > 100 | > 100
2 | Cc1ccc2c(c1)C(=O)C(=O)N2CCn1cc(Cn2ccc(=O)n(Cc3cn(CCN4C(=O)C(=O)c5cc(C)ccc54)nn3)c2=O)nn1 | 38.2 | 52.6 | 51.1
3 | O=C1C(=O)N(CCn2cc(Cn3ccc(=O)n(Cc4cn(CCN5C(=O)C(=O)c6cc(F)ccc65)nn4)c3=O)nn2)c2ccc(F)cc21 | > 100 | > 100 | 43.1
4 | O=C1C(=O)N(CCn2cc(Cn3cc(F)c(=O)n(Cc4cn(CCN5C(=O)C(=O)c6cc(Cl)ccc65)nn4)c3=O)nn2)c2ccc(Cl)cc21 | > 100 | > 100 | 63.3
5 | O=C1C(=O)N(CCn2cc(Cn3cc(Cl)c(=O)n(Cc4cn(CCN5C(=O)C(=O)c6cc(Cl)ccc65)nn4)c3=O)nn2)c2ccc(Cl)cc21 | > 100 | 65.7 | 38.2
6 | O=C1C(=O)N(CCn2cc(Cn3ccc(=O)n(Cc4cn(CCN5C(=O)C(=O)c6cc(Cl)ccc65)nn4)c3=O)nn2)c2ccc(Cl)cc21 | 42.8 | > 100 | > 100

Further lines, results first:

Row | IC50 [1] [µM] | IC50 [2] [µM] | IC50 [3] [µM] | Structure (SMILES)
7 | 18.2 | > 100 | > 100 | O=C1C(=O)N(CCn2cc(Cn3cc(Cl)c(=O)n(Cc4cn(CCN5C(=O)C(=O)c6ccccc65)nn4)c3=O)nn2)c2ccccc21
8 | > 100 | 50.7 | 56.4 | O=C1C(=O)N(CCCn2cc(Cn3ccc(=O)n(Cc4cn(CCCN5C(=O)C(=O)c6ccccc65)nn4)c3=O)nn2)c2ccccc21
9 | 28.6 | > 100 | > 100 | O=C1C(=O)N(CCn2cc(Cn3cc(F)c(=O)n(Cc4cn(CCN5C(=O)C(=O)c6ccccc65)nn4)c3=O)nn2)c2ccccc21
10 | 13.9 | 33.1 | > 100 | O=C1C(=O)N(CCCn2cc(Cn3ccc(=O)n(Cc4cn(CCCN5C(=O)C(=O)c6cc(Cl)ccc65)nn4)c3=O)nn2)c2ccc(Cl)cc21
11 | 57.8 | > 100 | 45.5 | O=C1C(=O)N(CCn2cc(Cn3ccc(=O)n(Cc4cn(CCN5C(=O)C(=O)c6ccccc65)nn4)c3=O)nn2)c2ccccc21
12 | 66.2 | 52.4 | 98.7 | O=C1C(=O)N(CCCn2cc(Cn3ccc(=O)n(Cc4cn(CCCN5C(=O)C(=O)c6cc(F)ccc65)nn4)c3=O)nn2)c2ccc(F)cc21
